Assay results published in US6696267B2, “Methods and compositions for screening Icrac modulators” (Warner-Lambert Company, priority 2000, dated 2004).
Where two headings read alike, the source gives them in different places.

How the values were obtained:
[1] = tested on: NFAT-driven β-lactamase synthesis (Icrac activation) in NFAT-β-lactamase Jurkat cells; experiment: NFAT-β-lactamase gene-reporter assay in Jurkat cells (Jk-NFAT-βlac), CCF2-AM ratio 460/535; format: cell-based; conditions: for Effect on β-lactamase synthesis at 10 μM / Effect on TG-driven β-lactamase synthesis / NFAT activation: Jurkat cells; for Effect on β-lactamase synthesis at 10 μM: TG 1 μM (FIG. 4); for Effect on TG-driven β-lactamase synthesis / NFAT activation: with TG 1 μM for 4 h (FIG. 4)
Method: (§1) Jurkat cell lines (Jk-NFAT-βlac) stably transfected with plasmid containing 3×NFAT-β-lactamase reporter gene (for NFAT promoter sequence see (19)), and plasmid containing CMV-β-lactamase (Jk-CMV-βlac), where CMV is a constitutively active promoter as well as HEK cells (HEK-CRE-βlac) with 3×CRE-β-lactamase (the CRE promoter contains CRE box sequence of CGTCA (20)) were obtained from Aurora Biosciences Corp (San Diego, Calif.).
Jurkat cells were grown in RPMI 1640 medium supplemented with 10% foetal bovine serum, 2 mM L-glutamine, 1 mM NEAA, 1 mM Na pyruvate, 25 mM HEPES, pH 7.4, gentamicin 100 μg/ml. HEK-293 cells were grown in MEM glutamax, supplemented with 10% FBS, gentamycin 100 μg/ml, HEPES 20 mM. Medium for stable cell propagation contained 250 μg/ml Zeocin (Jk-NFAT-βlac) or 800 μg/ml Geneticin (Jk-CMV-βlac, HEK-CRE-βlac). […] Cells were then loaded, for 1 h in the dark at room temperature, with 12 μM CCF2-AM (13). Fluorescence was monitored with a Fluostar (BMG, Germany) fluorimeter. Excitation was at 405 nm, and emission record at 460 nm and 535 nm. The ratio (460 nm/535 nm) of fluorescence unit (F.U.) was estimated after correction for background (medium without cells). HEK-CRE-βlac were stimulated using Forskolin 10 μM in the medium mentioned above (4×10^4 cells/well). All reagents were added with the stimulator agent (e.g. TG or forskolin), unless noticed.

[2] = tested on: constitutive β-lactamase (CMV-driven) in Jurkat cells; experiment: Constitutive CMV-β-lactamase Jurkat cell assay (Jk-CMV-βlac); format: cell-based; conditions: Jk-CMV-βlac cells (FIG. 6, DMSO 3%)
Method: as §1
Jurkat cells were grown in RPMI 1640 medium supplemented with 10% foetal bovine serum, 2 mM L-glutamine, 1 mM NEAA, 1 mM Na pyruvate, 25 mM HEPES, pH 7.4, gentamicin 100 μg/ml. HEK-293 cells were grown in MEM glutamax, supplemented with 10% FBS, gentamycin 100 μg/ml, HEPES 20 mM. Medium for stable cell propagation contained 250 μg/ml Zeocin (Jk-NFAT-βlac) or 800 μg/ml Geneticin (Jk-CMV-βlac, HEK-CRE-βlac). In a 96-well plate, 1 μM Thapsigargin (TG) was used to stimulate NFAT Jurkat cells (10^5 per well), for 4 h at 37° C., 5% CO2, in Dulbecco's Modified Essential Medium ([Ca^++] 1.8 mM) 10% FBS, gentamycin 100 μg/ml. Cells were then loaded, for 1 h in the dark at room temperature, with 12 μM CCF2-AM (13). Fluorescence was monitored with a Fluostar (BMG, Germany) fluorimeter. Excitation was at 405 nm, and emission record at 460 nm and 535 nm. The ratio (460 nm/535 nm) of fluorescence unit (F.U.) was estimated after correction for background (medium without cells). […]

Icrac channel = experiment: Optical measurement of intracellular [Ca++] with Fura-2; format: cell-based; conditions: Fura-2 as probe
Method: Loading with 2 μM fura-2-AM was performed with a 3×10^6 cells suspension for 30 min at 37° C., in Hanks buffer saline solution (HBSS). Cells were washed and resuspended twice to minimize extracellular dye. Fura-2 fluorescence measurements were carried out in a water-jacketed cuvette (room temperature) with continuous stirring, containing 1 ml of the cells suspension. Fluorescence was monitored with a Shimadzu spectrofluorophotometer by continuously (1 sec intervals) collecting excitation signals at 340 nm and 380 nm and emission signal at 510 nm. Maximal and minimal fluorescence were obtained by adding ionomycin 25 μM and EGTA (20 mM) respectively and sequentially at the end of the experiment. The ratio of excitation signals at 340 nm and 380 nm was used to calculate [Ca^++] as previously described (21) assuming a Kd of 155 nM.

[3] = tested on: NFAT-β-lactamase Jurkat cells; experiment: CCF2-AM loading capacity of NFAT-β-lactamase Jurkat cells (F.U. at 535 nm); conditions: for Toxic effects (weak loading): 50 μM, data not shown
[4] = tested on: NFAT-driven β-lactamase synthesis in p815 mastocyte cells; experiment: NFAT-β-lactamase gene-reporter assay in p815 mastocytes (p815-NFAT-βlac); format: cell-based; conditions: mastocytes (not shown)
Method: The mastocyte monoclonal cell line (p815-NFAT-βlac) stably transfected with plasmid containing 3×NFAT-β-lactamase were obtained as follow. Cells (1.10^7/ml) were electroporated in a 0.4 cm gap cuvette using a BioRad Gene Pulser II at 960 μF and 300V, using 20 μg of pcDNAIII 3×NFAT-β-lactamase Zeomycin expression vector (from Aurora Biosciences Corp; San Diego, Calif.) in DMEM medium. After 48 h, electroporated p815 cells were selected for 2 weeks using 250 μg/ml Zeocin (InVitrogen, Calif.). A pool of TG responding cells were first sorted, using FACS Vantage (Becton Dickinson, Calif.), and a week after, 200 cells were monosorted (one cell per well) from this pool, 15 clones grown up, and were tested as follow.
Jurkat cells were grown in RPMI 1640 medium supplemented with 10% foetal bovine serum, 2 mM L-glutamine, 1 mM NEAA, 1 mM Na pyruvate, 25 mM HEPES, pH 7.4, gentamicin 100 μg/ml. HEK-293 cells were grown in MEM glutamax, supplemented with 10% FBS, gentamycin 100 μg/ml, HEPES 20 mM. Medium for stable cell propagation contained 250 μg/ml Zeocin (Jk-NFAT-βlac) or 800 μg/ml Geneticin (Jk-CMV-βlac, HEK-CRE-βlac). […] Fluorescence was monitored with a Fluostar (BMG, Germany) fluorimeter. […] The ratio (460 nm/535 nm) of fluorescence unit (F.U.) was estimated after correction for background (medium without cells). […]

β-lactamase = β-lactamase inhibitor; cited from earlier work

## C[C@@H]1C[C@@H]([C@H](O)CC2CC(=O)NC(=O)C2)C(=O)[C@@H](C)C1 [CHX, cycloheximide]
[1]; added as long as 4 hrs after TG stimulation
  Effect on β-lactamase synthesis when added after TG stimulation: inhibitory effect

## CC(=O)C1=C(O)[C@@H]2[C@H]3c4c[nH]c5cccc(c45)C[C@H]3C(C)(C)N2C1=O [CPA, cyclopiazonic acid]
[1]
  Ratio (460 nm/535 nm): 0.407 ± 0.041
[1]; CPA 10 μM
  % total (TG 1 μM): 59%

## C[S+](C)[O-] [DMSO, dimethyl sulfoxide]
[1]; 0.5% final concentration
  Interference with the assay: did not hinder the assay
[1]; added 3 hrs after TG activation
  Effect on β-lactamase synthesis when added after TG activation: did not block β-lactamase synthesis
[2]
  Effect on constitutive β-lactamase synthesis: no effect
Icrac channel
  Effect on the Icrac channel, [Ca++]i determination: no effect
[3]; DMSO 0.1%
  F.U. at 535 nm, % control: 99.2%
[3]; DMSO 1%
  F.U. at 535 nm, % control: 96.1%
[3]; DMSO 2%
  F.U. at 535 nm, % control: 97%
[3]; DMSO 4%
  F.U. at 535 nm, % control: 107.7%
[3]; DMSO 5%
  F.U. at 535 nm, % control: 110.1%

## COc1ccc([C@@H]2Sc3ccccc3N(CCN(C)C)C(=O)[C@@H]2OC(C)=O)cc1 [Diltiazem]
[1]
  Effect on β-lactamase synthesis at 10 μM: did not have any effect
[3]
  Toxic effects (weak loading): Toxic effects were detected

## C=C1[C@@H](O)[C@@H]2O[C@]3(CC[C@H](/C=C/[C@@H](C)[C@@H]4CC(C)=C[C@@]5(O[C@H](C[C@@](C)(O)C(=O)O)CC[C@H]5O)O4)O3)CC[C@H]2O[C@@H]1[C@@H](O)C[C@H](C)[C@H]1O[C@@]2(CCCCO2)CC[C@H]1C [Okadaic acid, okadaic acid]
[1]
  Effect on TG-driven β-lactamase synthesis / NFAT activation: blocked the β-lactamase synthesis
[4]
  Effect on β-lactamase synthesis: blocked the β-lactamase synthesis

## CCCCCCCCCCCCCC(=O)O[C@@H]1[C@@H](C)[C@@]2(O)[C@@H](C=C(CO)C[C@]3(O)C(=O)C(C)=C[C@@H]23)[C@@H]2C(C)(C)[C@]12OC(C)=O [PMA, phorbol myristate acetate]
[1]
  Ratio (460 nm/535 nm): 0.012 ± 0.008
[1]; PMA 10 nM
  % total (TG 1 μM): 2%

## C/C=C(/C)C(=O)O[C@H]1C(C)=C2[C@H]([C@@H]1OC(=O)CCCCCCC)[C@@](C)(OC(C)=O)C[C@H](OC(=O)CCC)[C@@]1(O)[C@H]2OC(=O)[C@@]1(C)O [TG, thapsigargin]
[1]; 5-10 μM TG
  β-lactamase synthesis versus TG concentration: decrease was observed
[1]; TG 1 μM
  % total (TG 1 μM): 100%
  Ratio (460 nm/535 nm): 0.688 ± 0.035
[1]; Table 1
  Relative potency as Icrac activator (in words): most active Icrac activator
[1]; concentrations higher than 1 μM (FIG. 2C)
  β-lactamase synthesis versus TG concentration: did not further increase the β-lactamase synthesis
[1]; conventional conditions, 0.4 mM [Ca++] (FIG. 2B)
  β-lactamase activity with thapsigargin alone: weak

## C[C@]1(Cn2ccnn2)[C@H](C(=O)O)N2C(=O)C[C@H]2S1(=O)=O [Tazobactam]
[1]; Homo sapiens, Jurkat, NFAT-driven (FIG. 4), read-out: IC50, block of NFAT-driven β-lactamase
  IC50: 2 µM
β-lactamase
  Ki: 0.7 µM

## COc1ccc(CCN(C)CCCC(C#N)(c2ccc(OC)c(OC)c2)C(C)C)cc1OC (stereo not drawn) [Verapamil]
[1]
  Effect on β-lactamase synthesis at 10 μM: did not have any effect
[3]
  Toxic effects (weak loading): Toxic effects were detected

## calyculin
[1]
  Effect on TG-driven β-lactamase synthesis / NFAT activation: blocked the NFAT activation in a dose dependent manner

## phytohemaggutinin [PHA]
[1]; PHA 1 μg/ml
  % total (TG 1 μM): 41%
  Ratio (460 nm/535 nm): 0.280 ± 0.116
[1]; PHA 10 μg/ml
  % total (TG 1 μM): 84%
  Ratio (460 nm/535 nm): 0.578 ± 0.040
